According to ChEMBL document CHEMBL4028819, “Synthesis, antiplatelet and antithrombotic activities of resveratrol derivatives with NO-donor properties” (Bioorg Med Chem Lett, 2017):
Calls of active or inactive are those of the source. No cut-off for these calls is given here.

What was measured:
Platelet [1] = test: Antiplatelet activity in Wistar rat platelet rich plasma assessed as inhibition of collagen-induced platelet aggregation at 150 uM preincubated for 1 min followed by collagen addition by aggregometric analysis relative to control; type: functional
Platelet [2] = test: Antiplatelet activity in Wistar rat platelet rich plasma assessed as inhibition of arachidonic acid-induced platelet aggregation at 150 uM preincubated for 1 min followed by arachidonic acid addition by aggregometric analysis relative to control; type: functional
Platelet [3] = test: Antiplatelet activity in Wistar rat platelet rich plasma assessed as inhibition of ADP-induced platelet aggregation at 150 uM preincubated for 1 min followed by ADP addition by aggregometric analysis relative to control; type: functional
Mus musculus [4] = test: Toxicity in Swiss albino mouse assessed as bleeding time at 100 umol/10 g administered orally 60 mins prior to test by tail transection method; conditions: in vivo, po, 1 h
Mus musculus [5] = test: Anti-thrombotic activity in Swiss albino mouse assessed as protection against collagen/epinephrine-induced pulmonary thromboembolism at 100 umol/10 g, po administered as single dose pretreated for 60 mins followed by thrombotic challenge relative to control; type: functional
[6] = Induction of NO release assessed as nitrite formation in aqueous buffer at pH 7.4 measured after 1 hr in presence of L-cysteine by Griess assay; set-up: concentration or dose not given beside the values

SMILES	inhibition at 150 µM (Platelet [1]) [%]	inhibition at 150 µM (Platelet [2]) [%]	inhibition at 150 µM (Platelet [3]) [%]	Time (Mus musculus [4]) [s]	Activity (Mus musculus [5])	Activity [6] [%]
CC(=O)Oc1ccccc1C(=O)O [ASPIRIN]	63.4	28.9	27.7	800	40%	
O=C(N/N=C/c1ccc(Oc2no[n+]([O-])c2S(=O)(=O)c2ccccc2)cc1)c1ccccc1O	34.4	8.5	74.3			24.5
O=C(N/N=C/c1ccc(O)cc1)c1cccc(O)c1	19.1	72.8	60.3			
O=C(N/N=C/c1cccc(Oc2no[n+]([O-])c2S(=O)(=O)c2ccccc2)c1)c1ccccc1O	25.5	17	84.2			25.3
O=C(N/N=C/c1ccc(O)cc1)c1ccccc1O	35.9	42.5	58.2			
O=S(=O)(c1ccccc1)c1no[n+]([O-])c1S(=O)(=O)c1ccccc1	29.7	6.7	89.8		inactive	32.1
O=C(N/N=C/c1cccc(O)c1)c1cccc(O)c1	29.1	48.2	46.1			
O=C(N/N=C/c1cccc(O)c1)c1ccc(O)cc1	33.1	74.1	42.4			
O=C(N/N=C/c1ccc(Oc2no[n+]([O-])c2S(=O)(=O)c2ccccc2)cc1)c1ccc(O)cc1	72.2	20.3	87.1	380	80%	25.8
O=C(N/N=C/c1cccc(O)c1)c1ccccc1O	27.5	60.8	56			
O=C(N/N=C/c1cccc(Oc2no[n+]([O-])c2S(=O)(=O)c2ccccc2)c1)c1ccc(O)cc1	39.9	14.3	91.9			27.4
O=C(N/N=C/c1ccc(O)cc1)c1ccc(O)cc1	44	79.6	31.3	200	40%	
O=C(N/N=C/c1ccc(Oc2no[n+]([O-])c2S(=O)(=O)c2ccccc2)cc1)c1cccc(O)c1	54.3	37.3	82.2			26.2
O=C(N/N=C/c1cccc(Oc2no[n+]([O-])c2S(=O)(=O)c2ccccc2)c1)c1cccc(O)c1	44.8	25	88.4			24.1
